Assay results from patent publication US4980343A, “Aminooxodihydroisoindoloquinazoline carcinostatic agents” (Bayer Aktiengesellschaft, priority 1989, dated 1990).
Values after ≈ are worked out from the molar mass of the structure shown. “Also recorded” adds a separate entry of the source. Structures can show the parent of a compound that is named as a salt.

Legend:
E. coli Neumann [1] = experiment: minimal inhibitory concentrations (MICs) by agar dilution method; type: cell-based
Experimental: The minimal inhibitory concentrations (MICs) were determined by agar dilution method. Series of agar plates with Iso-Sensitest agar (Oxoid) were prepared which contained the test substances at twofold increasing concentrations. The agar plates were inoculated by using a multipoint inoculator (Denley). For this purpose, overnight cultures of the bacterial test strains were diluted appropriately so that each inoculation point contained approx. 10^4 cells. The inoculated agar plates were incubated at 37° C. and bacterial growth was read after 20 hours.

E. coli Neumann [2] = experiment: therapeutic efficacy: survival of female CF1 mice infected intraperitoneally with E. coli Neumann; type: in vivo; conditions: for survival of the animals (number of 10 mice): single dose 30 min. after infection, until sixth day
Experimental: To measure the therapeutic efficacy, 10 female CF1 mice each group were infected by intraperitoneal injection of 3×10^7 cells of E. coli Neumann. For treatment, one single dose of drug was given intravenously 30 min. after the infection. The survival of the animals was recorded daily until the sixth day after infection: […]

[3] = stability of B in the presence of peptidases or human plasma; type: in vitro ADME; conditions: not cleaved back to A
[4] = hydrolysis of 14 and 4a in human plasma at 37.0° C.; type: in vitro ADME
Experimental: (§1) The hydrolysis of 14 in human plasma was studied. A solution containing 2.0 mg of 14 in 200 μl of water was mixed with 2 ml of human plasma (sodium citrate was used as anticoagulant). The resulting mixture was placed in water bath at 37.0° C. Samples were withdrawn at appropriate time intervals and proteins were precipitated with 250 μl of acetonitrile, vortexed for 30 sec, the centrifuged for 15 min at 2200 rpm. A 100 μl sample of the supernatent was mixed with 250 μl of H2 O and the resulting solution was analyzed by HPLC. […] The chemical hydrolysis of 14 (5.5×10^-5 M) in 0.05M phosphate buffer pH 7.4 and ionic strength of 0.15M (NaCl) at 37.0° C. was studied. Samples were withdrawn and analyzed at appropriate time intervals.

[5] = stability of 4, 6 or 12 in aqueous buffered solutions (μ = 0.15); type: physicochemical
Experimental: The hydrolysis of 4, 6 or 12 in aqueous buffered solutions at various pH and at an ionic strength of 0.15 (NaCl) were measured by analyzing aliquots at appropriate intervals using HPLC. In the HPLC analysis both the disappearance of 4, 6 or 12 and the appearance of 1 were monitored. Rate constants were calculated from the first-order plots of the disappearance of 4, 6 or 12 versus time.

[6] = stability of 4, 6 and 12 in human plasma at 37° C.; type: in vitro ADME; conditions: for hydrolysis to 1: human plasma; for half-life: plasma
Experimental: (§2) A solution of approximately 2.0 mg of 4, 6 or 12 in 100 μl of water was added to 2 ml of either human or mice plasma. The resulting solution was placed in water bath at 37° C. Samples were withdrawn at appropriate time intervals and proteins were precipitated with 250 μl of acetonitrile, vortexed for 30 sec., then centrifuged for 10 min at 2200 rpm. […] Apparent first-order rate constants were obtained by plotting the disappearance the derivatives 4, 6 or 12 versus time on semilogarithmic plot and the results are shown in table 12.

[7] = stability of 4, 6 and 12 in mice plasma at 37° C.; type: in vitro ADME; conditions: for hydrolysis to 1: mice plasma; for kobs / half-life: mice, heparin; for half-life: mouse, plasma
Experimental: as §2

[8] = solubility in water and water containing solvents; conditions: for solubility: water
[9] = chemical hydrolysis of 14 in 0.05M phosphate buffer pH 7.4 at 37.0° C.; type: physicochemical; conditions: 5.5×10^-5 M, 0.05M phosphate pH 7.4, ionic strength 0.15M (NaCl)
Experimental: as §1

[10] = Acetate (0.05M), 25° C., pH 5.0, initial conc. 0.024 (4, 12), 0.018 (6) mg/ml
[11] = Phosphate (0.05M), 25° C., pH 7.4, initial conc. 0.02 mg/ml
[12] = Phosphate (0.05M), 37° C., pH 7.4, initial conc. 0.02 mg/ml
[13] = Water, 25° C., initial conc. 0.1 mg/ml, pH 5.46 (6), 6.1 (12)
[14] = Water, 25° C., initial conc. 10.0 mg/ml, pH 4.31 (6), 4.54 (12)
[15] = acetate buffer (0.05m), pH 5, Acetate (0.05M), 25° C., pH 5.0, initial conc. 0.024 (4, 12), 0.018 (6) mg/ml, 6 and 12 estimated values (*)
[16] = phosphate buffer (0.05m), pH 7.4, Phosphate (0.05M), 25° C., pH 7.4, initial conc. 0.02 mg/ml, 4 estimated value (*)
[17] = phosphate buffer (0.05m), pH 7.4, Phosphate (0.05M), 37° C., pH 7.4, initial conc. 0.02 mg/ml
[18] = water, pH 4.5, Water, 25° C., initial conc. 10.0 mg/ml, pH 4.5 (4), 4.31 (6), 4.54 (12), estimated values (*)
[19] = water, pH 5.9, Water, 25° C., initial conc. 0.1 mg/ml, pH 5.9 (4), 5.46 (6), 6.1 (12), estimated values (*)
[20] = concentration of obtainable aqueous solutions, hydrochloric acid salts (Example 5)

For CC(N)C(=O)N1CCN(c2cc3c(cc2F)c(=O)c(C(=O)O)cn3C2CC2)CC1 (centres unmarked) [B], the MIC (E. coli Neumann [1]; Escherichia coli, E. coli Neumann, agar dilution, Iso-Sensitest agar, 37° C., 20 hours) was 0.5 µg/mL (≈ 1.24 µM), the “effectiveness against E. coli Neumann in vitro” value (E. coli Neumann [1]; in words) was “only poorly effective” and the “survival of the animals (number of 10 mice)” value (from here on “survival of the animals”) (E. coli Neumann [2]; 0.06 mg/kg i.v.) was 0. For the same compound, the “survival of the animals” value (E. coli Neumann [2]; 0.25 mg/kg i.v.) was 1, the “survival of the animals” value (E. coli Neumann [2]; 0.5 mg/kg i.v.) was 1 and the “effectiveness against E. coli Neumann in vivo” value (E. coli Neumann [2]; in words) was “only poorly effective”. For the same compound, the “stability in the presence of peptidases or human plasma” value [3] was “stable”.
With C[C@H](N)C(=O)Nc1ccc2c(c1)CN1C(=O)c3ccccc3C1=N2 [Compound 4a, N-l-alanyl-AQ] the half-life ([4]; human plasma, FIG. 1, 4a formed from 14) was roughly 20 min.
Work on NCCCC[C@H](N)C(=O)Nc1ccc2c(c1)CN1C(=O)c3ccccc3C1=N2 [Compound 12, N-l-lysine dihydrochloride derivative of AQ] yielded a kobs [5, 10] of 0.00115 h⁻¹, a kobs [5, 11] of 0.00258 h⁻¹ and a kobs [5, 12] of 0.0103 h⁻¹. It also gave a kobs [5, 13] of 0.00078 h⁻¹, a kobs [5, 14] of 0.000267 h⁻¹ and a half-life [5, 15] of 25 days. The half-life [5, 16] was 11.2 days, the half-life [5, 17] was 2.8 days and the half-life [5, 18] was 108 days. The half-life [5, 19] was 37 days, the “hydrolysis to 1” value [6] was “quantitative hydrolysis” and the kobs ([6]; human, citrate) was 0.005 min⁻¹. For the same compound, the half-life ([6]; human, citrate) was 139 min, the “hydrolysis to 1” value [7] was “quantitative hydrolysis” and the kobs [7] was 0.0048 min⁻¹. For the same compound, the half-life [7] was 146 min, the solubility [8, 20] was greater than 25 mg/mL and the solubility ([8]; water solubility, dihydrochloride, freeze dried (Example 3)) was greater than 20 mg/mL.
Work on CC(C)C[C@H](N)C(=O)Nc1ccc2c(c1)CN1C(=O)c3ccccc3C1=N2 [Compound 6, N-l-leucine derivative of AQ] yielded a kobs [5, 10] of 0.0011 h⁻¹, a kobs [5, 11] of 0.00411 h⁻¹ and a kobs [5, 12] of 0.0086 h⁻¹. The kobs [5, 13] was 0.00061 h⁻¹, the kobs [5, 14] was 0.000146 h⁻¹ and the half-life [5, 15] was 26 days. It also gave a half-life [5, 16] of 7.03 days, a half-life [5, 17] of 3.36 days and a half-life [5, 18] of 198 days. The half-life [5, 19] was 47 days, the “hydrolysis to 1” value [6] was “quantitative hydrolysis” and the kobs ([6]; human, citrate) was 0.0057 min⁻¹. The half-life ([6]; human, citrate) was 122 min, the “hydrolysis to 1” value [7] was “quantitative hydrolysis” and the kobs [7] was 0.0185 min⁻¹. For the same compound, the half-life [7] was 37.4 min and the solubility [8, 20] was greater than 25 mg/mL.
For Nc1ccc2c(c1)CN1C(=O)c3ccccc3C1=N2 [Compound 1, aminooxodihydroisoindoloquinazoline], the “solubility in water (in words)” value ([8]; water containing solvents) was “only poorly soluble; also recorded: nearly insoluble”.
With C[C@H](NC(=O)CN)C(=O)Nc1ccc2c(c1)CN1C(=O)c3ccccc3C1=N2 [Compound 14, L-Gly-Ala-derivative of AQ] the half-life ([4]; human plasma (citrate), 2.0 mg of 14 in 200 μl water + 2 ml plasma, read-out: half life of hydrolysis of 14 to 4a) was 14 ± 1 min and the half-life at 55 µM [9] was 2.5 days.
For C[C@H](N)C(=O)Nc1ccc2c(c1)CN1C(=O)c3ccccc3C1=N2 [Compound 4, N-l-alanyl-AQ-monohydrochloride], the kobs [5, 10] was 0.0016 h⁻¹, the kobs [5, 12] was 0.0044 h⁻¹ and the half-life [5, 15] was 17.8 days. It also gave a half-life [5, 16] greater than 8.33 days, a half-life [5, 17] of 6.58 days and a half-life [5, 18] greater than 20 days. The half-life [5, 19] was greater than 20 days, the kobs ([6]; human 1, citrate) was 0.025 min⁻¹ and the kobs ([6]; human 2, citrate) was 0.022 min⁻¹. The “hydrolysis to 1” value [6] was “quantitative hydrolysis”, the half-life ([6]; human, human 1, citrate) was 27.6 min and the half-life ([6]; human, human 2, citrate) was 30.7 min. For the same compound, the “hydrolysis to 1” value [7] was “quantitative hydrolysis”, the kobs [7] was 0.033 min⁻¹ and the half-life [7] was 21.3 min. It also gave a solubility ([8]; solubility in water, hydrochloric acid salt, water (Example 5)) greater than 25 mg/mL.
